# Measured values from publication PMC7909954 (eLife, 2021).
# Like-named read-outs stand apart in the source and are kept apart here.
# How the values were obtained:
# MOR [1] = biological target: T1, MOR (Homo sapiens, UniProt P35372); assay: cell-based; conditions: for Emax: HEK-293T, read-out: Emax% cAMP inhibition hMOR
# DOR [2] = biological target: T2, DOR (Homo sapiens, UniProt P41143); assay: cell-based; conditions: for EC50: Tango; for Emax: HTLA, read-out: Emax% arrestin recruitment hDOR
# mMOR [3] = biological target: T3, mMOR (Mus musculus, UniProt P42866); assay: biochemical; conditions: for EC50: EC50 mMOR [35S]GTPγS, ± SEM; for Emax: read-out: Emax mMOR [35S]GTPγS
# rKOR [4] = biological target: T4, rKOR (Rattus norvegicus, UniProt P34975); assay: cell-based; conditions: for Emax: HEK-293T, read-out: Emax% G protein activation (BRET) rKOR
# mKOR [5] = biological target: T5, mKOR (Mus musculus, UniProt P33534); assay: biochemical; conditions: for EC50: EC50 mKOR [35S]GTPγS, ± SEM; for Emax: read-out: Emax mKOR [35S]GTPγS
# mKOR [6] = biological target: T5, mKOR; assay: biochemical
# KOR [7] = biological target: T6, KOR (Homo sapiens, UniProt P41145); conditions: for Bias factor (cAMP-Tango) hKOR: >1 G protein bias, <1 arrestin bias; for Bias factor (cAMP-Tango) hKOR / ΔlogRA Tango hKOR / ΔlogRA cAMP hKOR: vs U50,488h; for Log RA cAMP hKOR / LogRA Tango hKOR: transduction coefficient log(T/KA)
# mDOR [8] = biological target: T7, mDOR (Mus musculus, UniProt P32300); assay: biochemical; conditions: for Emax: read-out: Emax mDOR [35S]GTPγS
# MOR [9] = biological target: T1, MOR; assay: cell-based; conditions: for Emax: HTLA, read-out: Emax% arrestin recruitment (Tango) hMOR
# mMOR [10] = biological target: T3, mMOR; assay: cell-based; conditions: for EC50: EC50 G protein activation (BRET) mMOR; for Emax: HEK-293T, read-out: Emax% G protein activation (BRET) mMOR
# KOR [11] = biological target: T6, KOR; assay: cell-based; conditions: for EC50: EC50 cAMP inhibition hKOR; for Emax: HEK-293T, read-out: Emax% cAMP inhibition hKOR
# KOR [12] = biological target: T6, KOR; assay: cell-based; conditions: for EC50: EC50 arrestin recruitment (Tango) hKOR; for Emax: HTLA, read-out: Emax% arrestin recruitment (Tango) hKOR
# mDOR [13] = biological target: T7, mDOR; assay: cell-based; conditions: for EC50: EC50 G protein activation (BRET) mDOR; for Emax: HEK-293T, read-out: Emax% G protein activation (BRET) mDOR
# mMOR [14] = biological target: T3, mMOR; assay: biochemical
# MOR [15] = biological target: T1, MOR
# DOR [16] = biological target: T2, DOR; assay: cell-based; conditions: for Emax: HEK-293T, read-out: Emax% cAMP inhibition hDOR
# MOR [17] = biological target: T1, MOR; remark: listed apart in the source
# rKOR [18] = biological target: T4, rKOR
# mDOR [19] = biological target: T7, mDOR; assay: cell-based
# mMOR [20] = biological target: T3, mMOR; assay: cell-based; set-up: expressed in transfected cells; host or cells: HEK-293T
# rKOR [21] = biological target: T4, rKOR; assay: cell-based; conditions: HEK-293T, read-out: Emax% arrestin recruitment (BRET) rKOR
# T7 sequence (P32300 whole entry): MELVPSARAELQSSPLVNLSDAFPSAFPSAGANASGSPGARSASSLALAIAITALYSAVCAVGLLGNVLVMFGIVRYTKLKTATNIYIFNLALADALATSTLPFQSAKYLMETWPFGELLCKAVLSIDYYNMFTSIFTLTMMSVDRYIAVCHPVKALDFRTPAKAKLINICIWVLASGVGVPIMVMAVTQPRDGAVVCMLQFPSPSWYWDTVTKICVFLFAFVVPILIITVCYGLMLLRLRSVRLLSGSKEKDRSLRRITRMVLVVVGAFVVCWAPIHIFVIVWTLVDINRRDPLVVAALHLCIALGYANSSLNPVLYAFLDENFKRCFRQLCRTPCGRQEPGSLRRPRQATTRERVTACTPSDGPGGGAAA
# T3 sequence (P42866 whole entry): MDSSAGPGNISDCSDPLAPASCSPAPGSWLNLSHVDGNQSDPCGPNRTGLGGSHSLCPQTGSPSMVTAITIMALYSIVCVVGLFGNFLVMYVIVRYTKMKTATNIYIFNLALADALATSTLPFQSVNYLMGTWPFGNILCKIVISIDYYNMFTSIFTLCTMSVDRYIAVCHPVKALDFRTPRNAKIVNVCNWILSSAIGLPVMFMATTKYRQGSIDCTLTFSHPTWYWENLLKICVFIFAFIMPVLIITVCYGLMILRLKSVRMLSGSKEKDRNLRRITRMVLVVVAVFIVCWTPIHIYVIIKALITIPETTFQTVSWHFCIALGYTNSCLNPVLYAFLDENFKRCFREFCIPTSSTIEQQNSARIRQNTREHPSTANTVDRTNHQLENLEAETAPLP
# T4 sequence (P34975 whole entry): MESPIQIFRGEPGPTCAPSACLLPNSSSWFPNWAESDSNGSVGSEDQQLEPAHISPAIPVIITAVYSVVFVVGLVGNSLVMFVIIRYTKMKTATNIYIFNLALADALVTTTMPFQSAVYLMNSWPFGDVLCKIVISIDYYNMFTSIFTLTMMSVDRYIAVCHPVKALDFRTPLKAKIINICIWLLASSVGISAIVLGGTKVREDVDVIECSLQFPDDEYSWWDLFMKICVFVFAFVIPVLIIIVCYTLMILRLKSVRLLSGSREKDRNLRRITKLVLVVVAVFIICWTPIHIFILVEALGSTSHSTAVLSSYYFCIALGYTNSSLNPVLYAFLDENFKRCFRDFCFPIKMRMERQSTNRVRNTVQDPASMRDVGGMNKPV
# T1 sequence (P35372 whole entry): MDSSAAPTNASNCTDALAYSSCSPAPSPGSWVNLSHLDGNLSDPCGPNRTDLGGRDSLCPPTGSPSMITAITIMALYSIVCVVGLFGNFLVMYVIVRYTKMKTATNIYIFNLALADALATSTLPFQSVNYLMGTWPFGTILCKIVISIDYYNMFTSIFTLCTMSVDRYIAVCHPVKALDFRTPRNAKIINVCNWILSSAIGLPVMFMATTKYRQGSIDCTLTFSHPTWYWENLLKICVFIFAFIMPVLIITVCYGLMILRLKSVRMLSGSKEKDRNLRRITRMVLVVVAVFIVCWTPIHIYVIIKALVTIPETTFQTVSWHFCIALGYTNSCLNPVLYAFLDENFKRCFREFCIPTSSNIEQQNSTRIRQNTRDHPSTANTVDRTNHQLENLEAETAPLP
# T6 sequence (P41145 whole entry): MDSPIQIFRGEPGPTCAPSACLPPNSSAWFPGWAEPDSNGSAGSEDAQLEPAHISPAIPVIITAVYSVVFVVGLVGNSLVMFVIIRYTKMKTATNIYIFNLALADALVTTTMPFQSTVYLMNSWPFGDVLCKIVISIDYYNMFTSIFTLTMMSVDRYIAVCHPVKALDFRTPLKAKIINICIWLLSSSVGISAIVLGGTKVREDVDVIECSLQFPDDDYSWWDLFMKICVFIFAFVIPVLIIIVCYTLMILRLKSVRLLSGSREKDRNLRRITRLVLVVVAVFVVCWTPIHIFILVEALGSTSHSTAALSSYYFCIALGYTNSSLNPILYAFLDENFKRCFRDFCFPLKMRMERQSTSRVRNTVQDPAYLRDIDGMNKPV
# T5 sequence (P33534 whole entry): as the sequence (P34975 whole entry) above, with E11D, A17S, P51S, V308A counted along it
# T2 sequence (P41143 whole entry): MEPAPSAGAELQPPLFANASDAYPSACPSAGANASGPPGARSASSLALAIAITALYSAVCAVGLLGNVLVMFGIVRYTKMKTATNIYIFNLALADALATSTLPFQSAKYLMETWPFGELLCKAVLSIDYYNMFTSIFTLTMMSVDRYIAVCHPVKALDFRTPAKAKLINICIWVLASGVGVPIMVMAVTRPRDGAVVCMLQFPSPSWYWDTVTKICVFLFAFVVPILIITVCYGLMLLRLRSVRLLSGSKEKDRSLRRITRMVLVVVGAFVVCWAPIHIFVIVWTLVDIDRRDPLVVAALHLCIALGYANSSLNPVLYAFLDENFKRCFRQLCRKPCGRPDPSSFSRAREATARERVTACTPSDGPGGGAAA
smiles,measurement,setting,value
"CO[C@@]12CC[C@@H](NC(=O)c3cccc(I)c3)C3Oc4c(O)ccc5c4[C@@]31CCN(CC1CC1)C2C5 (stereo partly drawn) [MP1305, N-((4aS,7R,12bS)−3-(Cyclopropylmethyl)−9-hydroxy-4a-methoxy-2,3,4,4a,5,6,7,7a-octahydro-1H-4,12-methanobenzofuro[3,2-e]isoquinolin-7-yl)−3-iodobenzamide]",EC50,MOR [1]; EC50 cAMP inhibition hMOR,0.12 nM
same,Emax,MOR [1],69 ± 1.8%
same,EC50,DOR [2]; EC50 arrestin recruitment hDOR,228 nM
same,Emax,DOR [2],89 ± 2.8%
same,EC50,mMOR [3],0.7 ± 0.1 nM
same,Emax,mMOR [3],81.2 ± 16%
same,EC50,rKOR [4],5.04 nM
same,Emax,rKOR [4],35 ± 3%
same,EC50,mKOR [5],7.4 ± 1.8 nM
same,Emax,mKOR [5],42.2 ± 5.3%
same,Ki,mKOR [6],2.5 ± 0.3 nM
same,ΔΔlog RA (cAMP-Tango) hKOR,KOR [7],0.55±0.04
same,Bias factor (cAMP-Tango) hKOR,KOR [7],4
same,Log RA cAMP hKOR,KOR [7],9.22±0.012
same,LogRA Tango hKOR,KOR [7],7.17±0.025
same,ΔlogRA Tango hKOR,KOR [7],-1.341±0.036
same,ΔlogRA cAMP hKOR,KOR [7],-0.79±0.017
same,Emax,mDOR [8],22 ± 0.9%
same,EC50,MOR [9],16.4 nM
same,Emax,MOR [9],21 ± 3%
same,EC50,mMOR [10],0.74 nM
same,Emax,mMOR [10],72 ± 2%
same,EC50,KOR [11],720 pM
same,Emax,KOR [11],102 ± 1.2%
same,EC50,KOR [12],25.7 nM
same,Emax,KOR [12],75 ± 1%
same,EC50,mDOR [13],40.4 nM
same,Emax,mDOR [13],105 ± 5.9%
same,Ki,mMOR [14],0.25 ± 0.02 nM
same,Bias factor (cAMP-Tango) hMOR,MOR [15],11
same,Log RA cAMP hMOR,MOR [15],9.79±0.053
same,LogRA Tango hMOR,MOR [15],6.89±0.048
same,ΔlogRA Tango hMOR,MOR [15],0.109±0.049
same,ΔlogRA cAMP hMOR,MOR [15],1.17±0.076
same,ΔΔlog RA (cAMP-Tango) hMOR,MOR [15],1.059±0.090
same,EC50,DOR [16]; EC50 cAMP inhibition hDOR,74.2 nM
same,Emax,DOR [16],71 ± 2.4%
"O=C(N[C@@H]1CC[C@H]2[C@H]3Cc4ccc(O)c5c4[C@@]2(CCN3CC2CC2)[C@H]1O5)c1cccc(CO)c1 [MP1210, N-((4R,4aR,7R,7aR,12bS)−3-(cyclopropylmethyl)−9-hydroxy-2,3,4,4a,5,6,7,7a-octahydro-1H-4,12-methano[1]benzofuro[3,2-e]isoquinolin-7-yl)−3-(hydroxymethyl)benzamide]",Emax,MOR [1],94.6 ± 0.98%
same,EC50,MOR [1]; pEC50 cAMP inhibition hMOR,0.155 nM
same,arrestin recruitment at hMOR (in words),MOR [17],null arrestin recruitment
same,ΔΔlog RA (cAMP-Tango) hKOR,KOR [7],-0.28±0.19
same,Log RA cAMP hKOR,KOR [7],10.59±0.06
same,LogRA Tango hKOR,KOR [7],8.576±0.156
same,ΔlogRA Tango hKOR,KOR [7],0.48±0.18
same,ΔlogRA cAMP hKOR,KOR [7],0.2±0.081
same,EC50,KOR [11],25 pM
same,Emax,KOR [11],101 ± 1.1%
same,EC50,KOR [12],1.16 nM
same,Emax,KOR [12],63 ± 3.3%
O=C(NC1CCC2(O)C3Cc4ccc(O)c5c4C2(CCN3CC2CC2)C1O5)c1cccc(I)c1 (stereo not shown) [IBNtxA],EC50,MOR [1]; EC50 cAMP inhibition hMOR,0.07 nM
same,Emax,MOR [1],95 ± 2%
same,EC50,DOR [2]; EC50 arrestin recruitment hDOR,14.1 nM
same,Emax,DOR [2],224 ± 5%
same,EC50,"DOR [2]; pEC50 arrestin recruitment hDOR, ± SEM",15.8 nM
same,Log RA BRET-G rKOR,rKOR [18],10.19±0.141
same,LogRA BRET-Arr rKOR,rKOR [18],8.846±0.266
same,ΔΔlog RA (BRETG-BRETArr) rKOR,rKOR [18],-0.218±0.388
same,ΔlogRA BRET-G rKOR,"rKOR [18]; vs U50,488h",2.64±0.175
same,ΔlogRA BRET-arr rKOR,"rKOR [18]; vs U50,488h",2.858±0.346
same,EC50,mDOR [19]; EC50 arrestin recruitment (BRET) mDOR,26.6 nM
same,Emax,"mDOR [19]; HEK-293T, read-out: Emax% arrestin recruitment (BRET) mDOR",88 ± 6.8%
same,EC50,"mDOR [19]; pEC50 arrestin recruitment (BRET) mDOR, ± SEM",31.6 nM
same,EC50,mMOR [3],0.49 ± 0.12 nM
same,Emax,mMOR [3],101 ± 3%
same,EC50,mMOR [20],11300 nM
same,Emax,"mMOR [20]; HEK-293T, read-out: Emax% arrestin recruitment (BRET) mMOR",75%
same,Emax,rKOR [4],101 ± 2.3%
same,EC50,mKOR [5],0.22 ± 0.02 nM
same,Emax,mKOR [5],102 ± 4%
same,ΔΔlog RA (cAMP-Tango) hKOR,KOR [7],-1.002±0.052
same,Bias factor (cAMP-Tango) hKOR,KOR [7],0.1
same,Log RA cAMP hKOR,KOR [7],11.59±0.036
same,LogRA Tango hKOR,KOR [7],10.89±0.010
same,ΔlogRA Tango hKOR,KOR [7],2.53±0.015
same,ΔlogRA cAMP hKOR,KOR [7],1.53±0.050
same,EC50,mDOR [8],4.08 ± 0.67 nM
same,Emax,mDOR [8],95 ± 2%
same,EC50,MOR [9],5.86 nM
same,Emax,MOR [9],29 ± 0.02%
same,EC50,mMOR [10],0.054 nM
same,Emax,mMOR [10],59%
same,EC50,KOR [11]; cell printed in pM,2.46 pM
same,Emax,KOR [11],101 ± 1.79%
same,EC50,KOR [12],0.013 nM
same,Emax,KOR [12],109 ± 1.8%
same,EC50,mDOR [13],0.48 nM
same,Emax,mDOR [13],108 ± 3.7%
same,Bias factor (cAMP-Tango) hMOR,MOR [15],24
same,Log RA cAMP hMOR,MOR [15],9.99±0.081
same,LogRA Tango hMOR,MOR [15],7.572±0.25
same,ΔlogRA Tango hMOR,MOR [15],-0.25±0.25
same,ΔlogRA cAMP hMOR,MOR [15],1.14±0.11
same,ΔΔlog RA (cAMP-Tango) hMOR,MOR [15],1.38±0.28
same,EC50,DOR [16]; EC50 cAMP inhibition hDOR,0.43 nM
same,Emax,DOR [16],106 ± 1%
same,EC50,"DOR [16]; pEC50 cAMP inhibition hDOR, ± SEM",0.501 nM
same,Emax,rKOR [21],133 ± 7.3%
